Drawing on ChEMBL document CHEMBL1158261, “Cercophorins A-C: novel antifungal and cytotoxic metabolites from the coprophilous fungus Cercophora areolata” (1996), this text covers Activity and zone of inhibition for four molecules.

Type in all cases: functional
For assay [1], the system named is Sordaria fimicola. Kind of assay: Antifungal activity against Sordaria fimicola NRRL 6459 assessed as reduction in radical growth at 200 ug/disk by centerpoint inoculation disk assay. Set-up: scale not given: the % may be the effect or the level left.
Assay [2] relates to Bacillus subtilis. Kind of assay: […] activity against Bacillus subtilis ATCC 6051 at 200 ug/disk by standard disk assay. The following applies: read-out: IZ.
The test system of assay [3] is Staphylococcus aureus. Kind of assay: […] activity against Staphylococcus aureus ATCC 29213 at 200 ug/disk by standard disk assay. Particulars: read-out: IZ.
Assay [4] has as its system Ascobolus. Kind of assay: Antifungal activity against Ascobolus furfuraceus NRRL 6460 assessed as reduction in radical growth at 200 ug/disk by centerpoint inoculation disk assay. Set-up: scale not given: the % may be the effect or the level left.

With `COC(=O)c1cc(OC)cc(OC(=O)c2c(O)cc3cc(C)oc(=O)c3c2O)c1O` [CERCOPHORIN B], the Activity in assay [1] turned out to be 10%.

For `COC(=O)c1cc(OC)cc(O)c1OC(=O)c1c(O)cc2cc(C)oc(=O)c2c1O` [CERCOPHORIN C], the Activity in assay [1] is 51%.

For `COC(=O)c1cc(OC)cc(O)c1C(=O)c1c(O)cc2cc(C)oc(=O)c2c1O` [CERCOPHORIN A], the Activity in assay [1] is 34%. The zone of inhibition at 200 µg/disc in assay [2] was 26 mm; in assay [3], 16 mm.

`Cc1oc(=O)c2c(O)cc(O)c(C)c2c1C` [DECARBOXYCITRINONE]: the Activity in assay [1] and in assay [4] was 100% throughout.
